The record followed here is US9441024.

For this series the following is noted: disulfide bond; 38-membered ring.

For the substance “C(disialo(aminoethylamide))/S1C(disialo)-SRIF28”, the ring closure, yield after HPLC was 58%.

C(disialo)-C12 linker-SRIF14: the ring closure, yield after HPLC amounted to 61%.

S1-2C(asialo)-SRIF28: the ring closure, yield after HPLC stood at 55%. Regarding S1-2C(disialo)-SRIF28, the ring closure, yield after HPLC came to 58%. For the substance S1-3C(asialo)-SRIF28, the ring closure, yield after HPLC was determined as 52%. The same measure for S1-3C(disialo)-SRIF28: 63%. S1-4C(disialo)-SRIF28 displayed a ring closure, yield after HPLC of 57%.

S1-5C(disialo)-SRIF28 had a ring closure, yield after HPLC of 76%. Consider S1C(diGlcNAc)-SRIF28, for which the ring closure, yield after HPLC turned out to be 60%. As to S1C(disialo (hexadecylamide))-SRIF28, the ring closure, yield after HPLC came to 89%. S1C(disialo(aminoethylamide))-SRIF28 yielded a ring closure, yield after HPLC of 73%. In turn, S1C(disialo)-SRIF28 showed a ring closure, yield after HPLC of 59%.

Substance S1C(disialo).N19C(GlcNAc)-SRIF28 had a ring closure, yield after HPLC of 59%.
